Data set [1] relates to secretion of bile. Description: Activity on the secretion of bile, intraduodenal administration. The class given is in vivo, Male Wister rats. Particulars: 5 hours. Here is the method: A. Intraduodenal administration
Male Wister rats weighing 200 to 250 g were used, ten rats in each group. Each rat was fasted for 6 to 8 hours, and was thereafter fastened as laid on its back to a fixed table under ethereal anesthesia. The abdomen was cut open along the midline. A polyethylene tube was inserted into and attached to the common bile duct. The rat was then allowed to stand for a period of time (1 hour) to assure stabilized flow of bile. The amount of bile flowing out for the following period of 30 minutes was taken as 100 to serve as a control amount for the subsequent flow of bile.
Next, the drug to be tested was intraduodenally administered to the rat, and the amount of bile flowing out from the polyethylene tube dropwise was measured over a period of 5 hours. The amount was measured for every 30-minute period of the first 2 hours after the administration of the drug and then for every one-hour period. Sodium dehydrocholate, bile acid preparation serving as a known cholagogue, was used as a control drug.
The dose was 200 mg/kg (weight of rat) for bornyl glucoside, or 100 mg (drug)/kg (weight of rat) for other borneols and sodium dehydrocholate. The drugs were used as suspended in 4% aqueous solution of gum arabic. Experimental results

The test system of data set [2] is bile acid contents of bile. The data set is described as follows: Variations in bile acid contents of bile (high-speed liquid chromatography). The class given is in vivo, rats. Particulars: intraduodenal, 100 mg/kg, first one-hour period, pre-administration 30 minutes = 100. An excerpt:
C. Variations in bile acid contents of bile
Each portion of bile obtained during the first one-hour period of measurement in the foregoing bile secretion experiment (1)-A by intraduodenal administration was partly collected, then diluted 40-fold with freshly distilled methanol and thereafter filtered with use of a 0.45-micron membrane filter (product of Toyo Roshi). The filtrate was subjected to high-speed liquid chromatography according to the method of Okuyama S. et al., Chemistry Letters, p 1443 (1979). The bile acid contents of the bile flowing out during each measurement period were determined with reference to calibration curves prepared in advance for cholic acid, ursodeoxycholic acid, chenodeoxycholic acid and deoxycholic acid, and also for glycine conjugates and taurine conjugates of these acids. The total bile acid content was determined from the results. The bile acid contents and the total bile acid content of the bile flowing out during the period of 30 minutes before the administration of the test drug were taken as 100.

A short description of another data set: Acute toxicity test. The following applies: mouse, in vivo; oral, mice, 7 days, Litchfield-Wilcoxon method, 95% reliability limit. Further details: species or system male dd-Y mice. Here is the method:
The drug to be tested was orally given to male dd-Y mice weighing about 20 g, ten mice in each group. The mice were thereafter observed for 7 days to determine the LD50 from the number of resulting deaths. During the 7-day observation period, the animals were allowed free access to diets and water. The LD50 was determined according to the Litchfield-Wilcoxon method.

The test system of data set [3] is secretion of bile. Description: Activity on the secretion of bile, oral administration. The following applies: 5 hours. The class given is in vivo, rats. Here is the method: B. Oral Administration As in the case of intraduodenal administration, the drug to be tested was orally administered to rats each having a polyethylene tube attached to the common bile duct, and the amount of bile flowing out was observed over a period of 5 hours.

The subject of data set [4] is cholesterol content of bile. Description: Variations in the cholesterol content of bile (Cholesterol CII-Test Wako). The following applies: intraduodenal, 100 mg/kg, first one-hour period, pre-administration 30 minutes = 100. The class given is in vivo, rats. Here is the method:
(§1) B. Variations in the phospholipid and cholesterol contents of bile
(§2) Portions of the bile obtained during the first one-hour period of measurement in the bile secretion experiment (1)-A by intraduodenal administration were tested for phospholipid using Phospholipid B-Test Wako (enzyme method, Wako Pure Chemical Industries Ltd.) and for cholesterol using Cholesterol CII-Test Wako measuring kit(COD-p-chlorophenol color development method, Wako Pure Chemical Industries Ltd.). For the quantitative determination of phospholipid and cholesterol, a blank test was conducted, and a calibration curve prepared in advanced was used. The phospholipid and cholesterol contents of the bile flowing out during the period of 30 minutes before the administration of the test drug were taken as 100.

For the next data set, the system named is solids weight of bile. The data set is described as follows: Variations in the weight of solids in discharged bile. The class given is in vivo, rats. Particulars: intraduodenal, 100 mg/kg, 5 hours, pre-administration 30 minutes = 100. Here is the method: A. Variations in the weight of solids in discharged bile
The bile portions obtained from the bile secretion experiment (1)-A by intraduodenal administration were collected respectively for the observation periods. A quantity of each bile portion was freeze-dried, and the solids weight was measured to determine the variations in the solids weight of bile over the 5-hour period. The solids weight of bile obtained during the 30-minute period before the administration of the test drug, e.g. (+)-borneol, was calculated as 100.

In data set [5] the test system is phospholipid content of bile. Description: Variations in the phospholipid content of bile (Phospholipid B-Test Wako). In kind it is in vivo, rats. Particulars: intraduodenal, 100 mg/kg, first one-hour period, pre-administration 30 minutes = 100. Here is the method:
as §1, §2

The conditions of data set [6]: naturally occurring, used in oriental medicine as "Ryuno"; cited from earlier work.

Where only a bound is given, the exact number is not on record here.

For `CC1(C)[C@@H]2CC[C@@]1(C)[C@@H](O)C2` (relative stereo) [(±)-borneol], the “cholagogic effect (amount of bile flowing out)” value (“cholagogic effect” for short) in the data set with secretion of bile [1] (100 mg/kg) is given as “also had a cholagogic effect”.

Turning to `CC1(C)[C@@H]2CC[C@@]1(C)[C@H](O)C2` (relative stereo) [isoborneol], the “cholagogic effect” value in the data set with secretion of bile [1] (100 mg/kg) is given as “also had a cholagogic effect”.

Regarding `CC1(C)[C@@H]2CC[C@@]1(C)[C@@H](O)C2` [(+)-borneol], in data set [2], the “bile acid contents of bile” value is “secretion of remarkably increased amounts of chenodeoxylic acid and like bile acids”. Moreover, the “total bile acid content of bile” value in data set [2] is on record as “remarkable increase in the total bile acid content”. Besides, the median lethal dose (LD50) at 168 h in the data set “Acute toxicity test” was no less than 10000 mg/kg. Moreover, the “cholagogic effect” value is on record as “more sustained greater cholagogic effect than the control drug” with secretion of bile [3] and “sustained great cholagogic effect over the entire observation period of 5 hours” in the data set on secretion of bile [1] (100 mg/kg). Also, the “cholesterol content of bile” value in data set [4] is recorded as “approximately at the same level as those of the normal bile”. For the same molecule, the “variations in the solids weight of bile” value with solids weight of bile is reported as “sustained effect to increase the amount of biliary constituents”. Besides, in data set [5], the “phospholipid content of bile” value is “approximately at the same level as those of the normal bile”. The “empirically known pharmacological activities” value in data set [6] was “analgesic, anti-inflammatory, sedative and anti-palpitation effects and central depressant activity”.

With `CC1(C)[C@H]2CC[C@]1(C)[C@H](O)C2` [(-)-borneol], in the data set on secretion of bile [1] (100 mg/kg), the “cholagogic effect” value is “also had a cholagogic effect”.

As for `CC(=O)OC1CC2CCC1(C)C2(C)C` (centres unmarked) [bornyl acetate], in the data set on secretion of bile [1] (100 mg/kg), the “cholagogic effect” value is on record as “also had a cholagogic effect”.

On to `CC1(C)C2CCC1(C)C(OC1O[C@H](CO)[C@@H](O)[C@H](O)[C@H]1O)C2` (some centres unmarked) [bornyl glucoside], for which, in the data set with secretion of bile [1] (200 mg/kg (bornyl glucoside)), the “cholagogic effect” value was “also had a cholagogic effect”.

For `CC(=O)O[C@@H]1C[C@H]2CC[C@]1(C)C2(C)C` [isobornyl acetate], the “cholagogic effect” value in the data set on secretion of bile [1] (100 mg/kg) was “also had a cholagogic effect”.

For the molecule `C[C@H](CCC(=O)O)[C@H]1CC[C@H]2[C@@H]3C(=O)C[C@@H]4CC(=O)CC[C@]4(C)[C@H]3CC(=O)[C@]12C` [sodium dehydrocholate, reference compound], in data set [2], the “bile acid contents of bile” value is on record as “slight transient tendency to produce increased amounts of bile acids including deoxycholic acid only 30 minutes after the administration”. Moreover, the LD50 at 168 h in “Acute toxicity test” worked out at 2500 mg/kg. Further, in data set [4], the “cholesterol content of bile” value is “tendency for the phospholipid and cholesterol contents of bile to increase”. Further, the “cholagogic effect” value with secretion of bile [1] (100 mg/kg) is given as “transient great cholagogic effect 30 minutes after the administration”. For the same molecule, the “phospholipid content of bile” value in data set [5] was “tendency for the phospholipid and cholesterol contents of bile to increase”.

The record behind these values is patent US4931475A, “Cholagogue and/or gallstone solubilizer” (Hiya Pharmaceutical Co., Ltd., priority 1985, dated 1990).
